These results are taken from ChEMBL document CHEMBL1137642, “Growth and drug resistance phenotypes resulting from cytomegalovirus DNA polymerase region III mutations observed in clinical specimens” (Antimicrob Agents Chemother, 2007).

In assay [1] the test system is Human betaherpesvirus 5. Nature of the assay: Antiviral activity against Cytomegalovirus CMV T2211 infected in HFF cells by SEAP reporter gene assay. The assay is classed as functional, organism-based. Conditions: Human betaherpesvirus 5, T2211, HFF.
The subject of assay [2] is Human betaherpesvirus 5. In words: Antiviral activity against Cytomegalovirus CMV T2258 with UL97 C592G mutant infected in HFF cells by SEAP reporter gene assay. The assay is classed as functional, organism-based. Conditions: Human betaherpesvirus 5, T2258, HFF. (A reporter such as luciferase makes a cellular process visible.)
The test system of assay [3] is Human betaherpesvirus 5. In words: Antiviral activity against Cytomegalovirus CMV T2417 with pol A809V mutant infected in HFF cells by SEAP reporter gene assay. Conditions: Human betaherpesvirus 5, T2417, HFF. The class given is functional, organism-based.
The subject of assay [4] is Human betaherpesvirus 5. In words: Antiviral activity against Cytomegalovirus CMV T2784 with pol A809V UL97 C592G double mutant infected in HFF cells by SEAP reporter gene assay. The class given is functional, organism-based. As to conditions: Human betaherpesvirus 5, T2784, HFF.
Assay [5] concerns Human betaherpesvirus 5. In words: Antiviral activity against Cytomegalovirus CMV T2542 with pol T813S mutant infected in HFF cells by SEAP reporter gene assay. The class given is functional, organism-based. As to conditions: Human betaherpesvirus 5, T2542, HFF.
Assay [6] has as its system Human betaherpesvirus 5. In words: Antiviral activity against Cytomegalovirus CMV T2798 with pol T813S UL97 C592G double mutant infected in HFF cells by SEAP reporter gene assay. The class given is functional, organism-based. As to conditions: Human betaherpesvirus 5, T2798, HFF.
Assay [7] relates to Human betaherpesvirus 5. In words: Antiviral activity against Cytomegalovirus CMV T2420 with pol G841A mutant infected in HFF cells by SEAP reporter gene assay. As to conditions: Human betaherpesvirus 5, T2420, HFF. The assay is classed as functional, organism-based.
Assay [8] has as its system Human betaherpesvirus 5. Nature of the assay: Antiviral activity against Cytomegalovirus CMV 2817 with pol G841A UL97 C592G double mutant infected in HFF cells by SEAP reporter gene assay. The assay is classed as functional, organism-based. Conditions: Human betaherpesvirus 5, T2817, HFF.
The subject of assay [9] is Human betaherpesvirus 5. In words: Drug resistance, ratio of EC50 for Cytomegalovirus CMV T2417 pol A809V mutant to EC50 for Cytomegalovirus CMV T2211 by plaque reduction assay. The class given is functional. On the technique in general: In a plaque reduction assay, fewer plaques than in the control indicate reduced infectivity or spread.
Assay [10] relates to Human betaherpesvirus 5. Nature of the assay: Drug resistance, ratio of EC50 for Cytomegalovirus CMV T2420 pol G841A mutant to EC50 for Cytomegalovirus CMV T2211 by SEAP reporter gene assay. The class given is functional.
Assay [11] concerns Human betaherpesvirus 5. In words: Drug resistance, ratio of EC50 for Cytomegalovirus CMV […] pol T813S mutant to EC50 for Cytomegalovirus CMV T2211 by SEAP reporter gene assay. The assay is classed as functional.
The test system of assay [12] is Human betaherpesvirus 5. Nature of the assay: Drug resistance, ratio of EC50 for Cytomegalovirus CMV T2417 pol A809V mutant to EC50 for Cytomegalovirus CMV T2211 by SEAP reporter gene assay. The assay is classed as functional.
The test system of assay [13] is Human betaherpesvirus 5. Nature of the assay: Drug resistance, ratio of EC50 for Cytomegalovirus CMV pol A384P mutant to EC50 for Cytomegalovirus CMV T2211 by SEAP reporter gene assay. The assay is classed as functional.
For assay [14], the system named is Human betaherpesvirus 5. Nature of the assay: Drug resistance, ratio of EC50 for Cytomegalovirus CMV T2784 with pol A809V UL97 C592G double mutant to EC50 for Cytomegalovirus CMV T2211 by SEAP reporter gene assay. The class given is functional.
The test system of assay [15] is Human betaherpesvirus 5. In words: Drug resistance, ratio of EC50 for Cytomegalovirus CMV T2798 with pol T813S UL97 C592G double mutant to EC50 for Cytomegalovirus CMV T2211 by SEAP reporter gene assay. The assay is classed as functional.
Assay [16] concerns Human betaherpesvirus 5. Nature of the assay: Drug resistance, ratio of EC50 for Cytomegalovirus CMV T2817 with pol G841A UL97 C592G double mutant to EC50 for Cytomegalovirus CMV T2211 by SEAP reporter gene assay. The class given is functional.
The test system of assay [17] is Human betaherpesvirus 5. In words: Drug resistance, ratio of EC50 for Cytomegalovirus CMV pol T821I mutant to EC50 for Cytomegalovirus CMV T2211 by SEAP reporter gene assay. The assay is classed as functional.

For `Nc1ccn(C[C@@H](CO)OCP(=O)(O)O)c(=O)n1.O.O` [CIDOFOVIR], the EC50 was 0.22 µM in the assay with Human betaherpesvirus 5 [1]; 0.27 µM with Human betaherpesvirus 5 [2]; 0.42 µM with Human betaherpesvirus 5 [3]; 0.45 µM in the assay with Human betaherpesvirus 5 [4]; 0.6 µM in the assay on Human betaherpesvirus 5 [5]; 0.37 µM in the assay on Human betaherpesvirus 5 [6]. Moreover, the EC50 was 0.58 µM with Human betaherpesvirus 5 [7] and 0.67 µM in the assay on Human betaherpesvirus 5 [8]. In addition, the “fold change (FC)” value in the assay with Human betaherpesvirus 5 [9] is 1.6.

On to `O=C(O)P(=O)(O)O` [FOSCARNET], for which the EC50 in the assay on Human betaherpesvirus 5 [1] came to 41 µM; with Human betaherpesvirus 5 [2] it was 44 µM; with Human betaherpesvirus 5 [3], 137 µM; with Human betaherpesvirus 5 [4], 137 µM; with Human betaherpesvirus 5 [5], 199 µM; in the assay on Human betaherpesvirus 5 [6], 204 µM. Further, the EC50 worked out at 176 µM in the assay on Human betaherpesvirus 5 [7] and 213 µM in the assay on Human betaherpesvirus 5 [8]. Besides, the “fold change (FC)” value came out at 6.3 in the assay on Human betaherpesvirus 5 [9], 3 in the assay on Human betaherpesvirus 5 [10], 3 in the assay on Human betaherpesvirus 5 [11] and 3 with Human betaherpesvirus 5 [12].

`Nc1nc2c(ncn2COC(CO)CO)c(=O)[nH]1` [GANCICLOVIR]: the EC50 in the assay with Human betaherpesvirus 5 [1] was determined as 1.1 µM; in the assay with Human betaherpesvirus 5 [2], 3.9 µM; in the assay with Human betaherpesvirus 5 [3], 2.6 µM; in the assay on Human betaherpesvirus 5 [4] it was 6.1 µM; with Human betaherpesvirus 5 [5], 2.7 µM; in the assay on Human betaherpesvirus 5 [6], 6.6 µM. The EC50 was 3.5 µM with Human betaherpesvirus 5 [7] and 8.4 µM in the assay with Human betaherpesvirus 5 [8]. Besides, the “fold change (FC)” value is recorded as 5 in the assay with Human betaherpesvirus 5 [13]; 2 in the assay with Human betaherpesvirus 5 [14]; 2 in the assay on Human betaherpesvirus 5 [15]; 2 in the assay with Human betaherpesvirus 5 [16]; 5 in the assay with Human betaherpesvirus 5 [17]; 2.6 in the assay on Human betaherpesvirus 5 [9].

The EC50 is the concentration giving half of the maximal effect.
